Tests used:
ECHCG = test: Post-emergence herbicidal effect, greenhouse pot test; type: in vivo, Echinochloa crus-galli; details: for pest or weed control at 80 g/ha / pest or weed control at 320 g/ha: Echinochloa crus-galli, 504 h, read-out: Post-emergence effect against ECHCG in %
How it was run: (§1)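 Weeds sown in sandy loam, greenhouse-grown 2–3 weeks, then sprayed at one-leaf stage with WP or EC formulations in water plus 0.5% additive at 600 l/ha. Rates 20 to 320 g/ha. Visual rating after about 3 weeks versus untreated controls (100% = plants dead, 0% = like control).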

ABUTH = test: as above; type: in vivo, Abutilon theophrasti; details: visual rating about 3 weeks after treatment; for pest or weed control at 320 g/ha / Post-emergence effect against ABUTH: 320 g/ha
How it was run: as §1

AVEFA = test: as above; type: in vivo, Avena fatua; details: 320 g/ha, visual rating about 3 weeks after treatment; for pest or weed control at 320 g/ha: Avena fatua, 504 h, read-out: Post-emergence effect against AVEFA
How it was run: as §1

PHBPU = test: as above; type: in vivo, Ipomoea purpurea
How it was run: as §1

VIOTR = test: as above; type: in vivo, Viola tricolor; details: Viola tricolor, 504 h, read-out: Post-emergence effect against VIOTR in %
How it was run: as §1

DIGSA = test: as above; type: in vivo, Digitaria sanguinalis; details: visual rating about 3 weeks after treatment; for pest or weed control at 320 g/ha / Post-emergence effect against DIGSA: 320 g/ha
How it was run: as §1

VERPE = test: as above; type: in vivo, Veronica persica
How it was run: as §1

ALOMY = test: as above; type: in vivo, Alopecurus myosuroides; details: 320 g/ha, visual rating about 3 weeks after treatment
How it was run: as §1

TRZAS = test: Post-emergence herbicidal effect and crop plant compatibility, greenhouse pot test; type: in vivo, Triticum aestivum; details: 20 g/ha, one-leaf stage, rated visually after about 3 weeks vs untreated controls; for percent crop injury (phytotoxicity) to wheat, post-emergence at 20 g/ha: Triticum aestivum, 504 h, read-out: Post-emergence effect at 20 g/ha against TRZAS in %
From the text: • ALOMY: Alopecurus myosuroides SETVI: Setaria viridis • AVEFA: Avena fatua POLCO: Fallopia convolvulus • AMARE: Amaranthus retroflexus ECHCG: Echinochloa crus-galli • LOLRJ: Lolium rigidum STEME: Stellaria media • VERPE: Veronica persica MATIN: Tripleurospermum inodorum • DIGSA: Digitaria sanguinalis ABUTH: Abutylon threophrasti • TRZAS: Triticum aestivum VIOTR: Viola tricolor • BRSNW: Brassica napus ZEAMX: Zea mays • PHBPU: Ipomoea purpurea GLXMA: Glycine max • ORYSA: Oryza sativa HORMU: Hordeum murinum
Seeds of monocotyledonous and dicotyledonous weeds and crop plants are placed in sandy loam in plastic or organic planting pots, covered with soil and cultivated in a greenhouse under controlled growth conditions. 2 to 3 weeks after sowing, the trial plants are treated at the one-leaf stage. The compounds of the invention, formulated in the form of wettable powders (WP) or as emulsion concentrates (EC), are then sprayed onto the green parts of the plants as aqueous suspension or emulsion with addition of 0.5% additive at a water application rate of 600 l/ha (converted). After the test plants have been kept in the greenhouse under optimum growth conditions for about 3 weeks, the activity of the preparations is rated visually in comparison to untreated controls. For example, 100% activity=the plants have died, 0% activity=like control plants.
Tables 20a to 38c below show the effects/crop compatibilities of selected compounds of the general formula (I) on various harmful plants at an application rate corresponding to 20 to 320 g/ha, which were obtained by the trial procedure specified above.

SETVI = test: Post-emergence herbicidal effect, greenhouse pot test; type: in vivo, Setaria viridis; details: for pest or weed control at 320 g/ha / Post-emergence effect against SETVI in %: 320 g/ha
How it was run: as §1

ZEAMX = test: Post-emergence herbicidal effect and crop plant compatibility, greenhouse pot test; type: in vivo, Zea mays; details: one-leaf stage, rated visually after about 3 weeks vs untreated controls; for plant injury at 20 g/ha: read-out: Post-emergence effect at 20 g/ha against ZEAMX in %; for plant injury at 80 g/ha: read-out: Post-emergence effect at 80 g/ha against ZEAMX in %
How it was run: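 Greenhouse pot test: weeds and crops sown in sandy loam, sprayed post-emergence at one-leaf stage (2–3 weeks after sowing) with WP or EC formulations plus 0.5% additive at 600 l/ha water, rates 20–320 g/ha. Visual rating about 3 weeks later versus untreated controls (100% = dead, 0% = as control).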

KCHSC = test: Post-emergence herbicidal effect, greenhouse pot test; type: in vivo; details: 320 g/ha; for pest or weed control at 320 g/ha: 504 h, read-out: Post-emergence effect against KCHSC in %
How it was run: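 Greenhouse plants in sandy loam, sprayed post-emergence at the one-leaf stage (2–3 weeks after sowing) with WP or EC formulations in water plus 0.5% additive at 600 l/ha. Rates 20 to 320 g/ha. Activity rated visually after about 3 weeks against untreated controls (0% like control, 100% dead).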

MATIN = test: as above; type: in vivo, Tripleurospermum inodorum; details: 320 g/ha; for pest or weed control at 320 g/ha: Tripleurospermum inodorum, 504 h, read-out: Post-emergence effect against MATIN in %
How it was run: as §1

AMARE = test: as above; type: in vivo, Amaranthus retroflexus; details: 320 g/ha, visual rating about 3 weeks after treatment
How it was run: as §1

POLCO = test: as above; type: in vivo, Fallopia convolvulus
How it was run: as §1

[1] = Abutilon theophrasti, 504 h, read-out: Post-emergence effect against ABUTH
[2] = Ipomoea purpurea, 504 h, 320 g/ha, read-out: Post-emergence effect against PHBPU in %
[3] = Digitaria sanguinalis, 504 h, read-out: Post-emergence effect against DIGSA
[4] = Veronica persica, 504 h, 320 g/ha, read-out: Post-emergence effect against VERPE in %
[5] = Setaria viridis, 504 h, read-out: Post-emergence effect against SETVI in %
[6] = Fallopia convolvulus, 504 h, 320 g/ha, read-out: Post-emergence effect against POLCO in %

| Compound | pest or weed control at 80 g/ha (ECHCG; 80 g/ha) [%] | pest or weed control at 320 g/ha (ECHCG; 320 g/ha) [%] | pest or weed control at 320 g/ha (ABUTH; [1]) [%] | pest or weed control at 320 g/ha (AVEFA) [%] | pest or weed control at 320 g/ha (PHBPU; [2]) [%] | pest or weed control at 320 g/ha (VIOTR) [%] | pest or weed control at 320 g/ha (DIGSA; [3]) [%] | pest or weed control at 320 g/ha (VERPE; [4]) [%] | percent crop injury (phytotoxicity) to wheat, post-emergence at 20 g/ha (TRZAS) [%] | pest or weed control at 320 g/ha (SETVI; [5]) [%] | plant injury at 20 g/ha (ZEAMX; Zea mays, 504 h, 20 g/ha) [%] | pest or weed control at 320 g/ha (KCHSC) [%] | pest or weed control at 320 g/ha (MATIN) [%] | Post-emergence effect against ECHCG in % (ECHCG; 320 g/ha) [%] | Post-emergence effect against ABUTH (ABUTH) [%] | Post-emergence effect against AVEFA (AVEFA) [%] | Post-emergence effect against PHBPU in % (PHBPU; 320 g/ha) [%] | Post-emergence effect against DIGSA (DIGSA) [%] | pest or weed control at 320 g/ha (POLCO; [6]) [%] | plant injury at 80 g/ha (ZEAMX; Zea mays, 504 h, 80 g/ha) [%] | other results |
| --- | --- | --- | --- | --- | --- | --- | --- | --- | --- | --- | --- | --- | --- | --- | --- | --- | --- | --- | --- | --- | --- |
| CCOC(Oc1nn(-c2ccccc2F)c(-c2ccc(F)nc2)c1Br)C(=O)OCCC(=O)OC (single isomer, unassigned) [Example I-59, Methyl 3-{[(2RS)-2-{[4-bromo-1-(2-fluorophenyl)-5-(6-fluoropyridin-3-yl)-1H-pyrazol-3-yl]oxy}-2-ethoxyethanoyl]oxy}propanoate] | 90 | 90 | 90 | 80 | 90 | 90 | 90 | 80 | 0 | 90 | 20 | 80 | 80 | – | – | – | – | – | – | – | pest or weed control at 80 g/ha (ABUTH; Abutilon theophrasti, 504 h, 80 g/ha, read-out: Post-emergence effect against ABUTH): 90%; pest or weed control at 80 g/ha (PHBPU; Ipomoea purpurea, 504 h, 80 g/ha, read-out: Post-emergence effect against PHBPU in %): 90%; pest or weed control at 80 g/ha (VIOTR; 80 g/ha): 90%; pest or weed control at 80 g/ha (DIGSA; Digitaria sanguinalis, 504 h, 80 g/ha, read-out: Post-emergence effect against DIGSA): 80%; pest or weed control at 80 g/ha (VERPE; Veronica persica, 504 h, 80 g/ha, read-out: Post-emergence effect against VERPE in %): 80%; pest or weed control at 320 g/ha (ALOMY; Alopecurus myosuroides, 504 h, read-out: Post-emergence effect against ALOMY): 90%; pest or weed control at 80 g/ha (SETVI; Setaria viridis, 504 h, 80 g/ha, read-out: Post-emergence effect against SETVI in %): 80% |
| CCOC(Oc1nn(-c2ccccc2F)c(-c2ccc(F)nc2)c1Br)C(=O)OCCC(=O)OC (single isomer, unassigned) [Example I-64, Methyl 3-{[(2R*)-2-{[4-bromo-1-(2-fluorophenyl)-5-(6-fluoropyridin-3-yl)-1H-pyrazol-3-yl]oxy}-2-ethoxyethanoyl]oxy}propanoate] | – | – | – | – | – | – | – | – | 10 | – | 20 | – | – | 90 | 80 | 90 | 90 | 80 | – | – | Post-emergence effect against ECHCG in % (ECHCG; 80 g/ha): 80%; Post-emergence effect against PHBPU in % (PHBPU; 80 g/ha): 80%; Post-emergence effect against VERPE in % (VERPE; 80 g/ha): 80%; Post-emergence effect against VERPE in % (VERPE; 320 g/ha): 80%; Post-emergence effect against ALOMY (ALOMY): 90%; Post-emergence effect against SETVI in % (SETVI): 90%; Post-emergence effect against KCHSC in % (KCHSC): 90%; Post-emergence effect against MATIN in % (MATIN): 80% |
| COC(=O)CCOC(=O)C(OC)Oc1nn(-c2ncccc2F)c(-c2ccc(F)nc2)c1C1CC1 (single isomer, unassigned) [Example I-81] | – | – | – | – | – | – | – | – | – | – | – | – | – | 90 | 90 | 90 | 80 | 80 | – | – | Post-emergence effect against AMARE (AMARE): 80%; Post-emergence effect against POLCO in % (POLCO; 320 g/ha): 90%; Post-emergence effect against ALOMY (ALOMY): 90%; Post-emergence effect at 20 g/ha against TRZAS in % (TRZAS): 0%; Post-emergence effect against SETVI in % (SETVI): 90%; Post-emergence effect at 20 g/ha against ZEAMX in % (ZEAMX; 20 g/ha): 0%; Post-emergence effect at 80 g/ha against ZEAMX in % (ZEAMX; 80 g/ha): 0%; Post-emergence effect against KCHSC in % (KCHSC): 90% |
| COC(Oc1nn(-c2ncccc2F)c(-c2ccc(F)nc2)c1C1CC1)C(=O)O (stereo not shown) [Example I-56] | 80 | 90 | 80 | 80 | 80 | 90 | 80 | 80 | 0 | 80 | 0 | 90 | – | – | – | – | – | – | 80 | 0 | Post-emergence effect at 320 g/ha against ZEAMX in % (ZEAMX; 320 g/ha): 20% |
| COC(Oc1nn(-c2ncccc2F)c(-c2ccc(F)nc2)c1C(F)(F)F)C(=O)O (stereo not shown) [Example I-57] | – | 90 | – | 80 | 80 | 80 | – | – | 0 | – | 0 | 90 | – | – | – | – | – | – | 80 | 0 | plant injury at 320 g/ha (ZEAMX; Zea mays, 504 h, 320 g/ha, read-out: Post-emergence effect at 320 g/ha against ZEAMX in %): 0% |
| COC(Oc1nn(-c2ccccc2F)c(-c2ccc(F)nc2)c1C1CC1)C(=O)O (stereo not shown) [Example I-69] | – | 90 | 90 | – | 80 | 90 | – | 80 | 0 | – | 0 | 80 | 80 | – | – | – | – | – | 80 | 0 | pest or weed control at 80 g/ha (POLCO; Fallopia convolvulus, 504 h, 80 g/ha, read-out: Post-emergence effect against POLCO in %): 80% |

From US20240391862A1, “(1,4,5-TRISUBSTITUTED-1H-PYRAZOL-3-YL)OXY-2-ALKOXY ALKYL ACIDS AND THEIR DERIVATIVES, THEIR SALTS AND THEIR USE AS HERBICIDAL AGENTS” (Bayer AKtiengesellschaft, priority 2021, published 2024)
